Test results: US9000047B2, “Compound inhibiting activation of the enzyme Erk 1/2 to be used in the treatment of neurodegenerative illnesses” (Farmalider, S.A., priority 2010, dated 2015)

What was measured:
Hippocampal neurons = experiment: TUNEL assay for the detection of cellular apoptosis induced by β-amyloid peptide in hippocampal neurons; type: cell-based, mouse
Protocol: In a second in vitro assay, the apoptosis in nerve cells was measured by means of the TUNEL technique described in R. Sgonc et al., Trends Genetics, 1994, 10, 41-42. Apoptosis is the function that controls the death of a biological unit in a programmed manner.
Hippocampal neurons (obtained as described in Example 1) were cultured in 24 well plates (Nunc) at a density of 100,000 cells/well.
After 7 days under culture, β-amyloid peptide 1-40 (Aβ1-40) (Amyloid βProtein (1-40) trifluoroacetate salt, Bachem) (20 μM) was added and the cells were incubated for 72 h.
In order to study the inhibitory effect of the compound of formula (I), the cells were pre-incubated for 15 minutes with said compound at a concentration of 30 μM prior to the addition of the β-amyloid peptide, Aβ1-40.
After 72 h, the cells were fixed and the apoptotic neurons were detected by means of the TUNEL technique (Sgonc, R. et al. (1994) Trends Genetics 10, 41-42) with the in situ “cell death detection” kit, POD (Roche). In said kit, fluorescein-dUTP was used to label the DNA chain cleavage, which makes it possible to directly visualise the staining of the nuclei of the apoptotic neurons in the fluorescence microscope.
Parallel to this, the neuronal nuclei were stained with a specific monoclonal antibody (mouse anti-neuronal nuclei (NeuN) monoclonal antibody, 0.5 μg/ml, Chemicon) and a secondary anti-mouse Cy3 antibody (3.75 μg/ml, Jackson Immunoresearch Laboratories).
The quantification was performed by counting the positive nuclei following the TUNEL staining in 3 random fields and expressed as the % of dead neurons with respect to the total number of neurons in each field. Each inhibitor was assayed in triplicate in 4 independent experiments.
As a negative control, cells cultured for the same period of time, without treatment with the β-amyloid peptide (measurement of baseline spontaneous apoptosis), were used. As a positive control of 100% apoptosis, treatment with DNAse (20 U/ml) was used, following the procedure indicated in the commercial kit.
The value of the positive control (treatment with DNAse) was considered to be 100 and the rest of the measurements were adjusted in relation to this value.

protein kinase Erk 1/2 = experiment: ELISA assay for the detection of the tPA-induced activation of Erk 1/2 in primary hippocampal neurons; type: cell-based, mouse; conditions: for normalised Erk 1/2 values, Mean value (arbitrary units): phospho-Erk 1/2 vs total Erk 1/2, 15 minutes pre-incubation with inhibitor, then tPA 20 μg/ml for 1 hour, tPA alone = 1, negative control 0.61
From the text: The capacity to inhibit the activation of the protein kinase Erk 1/2 presented by the Compound of formula (I) has been determined by means of the ELISA (Enzyme-Linked Immunoadsorbent Assay) technique, as described in the Examples section.
In the ELISA assays, neurons from primary cultures of hippocampi isolated from mouse embryos (day 16.5 of gestation) were used, following the protocol described by Goslin and Banker (Goslin K and Banker G (1991) Culturing Nerve Cells, MIT Press, Cambridge, Mass.). This culture was used because the hippocampus is the main region affected in Alzheimer's disease and they are non-transformed cells.
10,000 cells/well were seeded in 96 well plates (Nunc) pre-treated with poly-L-Lys (SIGMA) and left under culture for 7 days.
The treatment with tPA was performed by adding it at 20 μg/ml (without changing the medium), for 1 hour. The treatment with the inhibitor, the compound of formula (I), was performed by means of a 15 minutes pre-incubation prior to the addition of tPA, as described above.
Following the treatments, the cells were fixed with methanol at a temperature of −20° C. for 5 min, and an ELISA assay was performed in order to detect the activation of Erk 1/2.
The wells were washed three times with TBST (Tris-buffered saline, 0.1% Triton® X-100) and blocked with 5% horse serum in TBST for 1 h at 37° C. They were once again washed with TBST, […] of the corresponding primary antibody (anti-phospho-Erk 1/2 Cell Signalling, catalogue number 9101, 1/500 or total Erk 1/2, Upstate catalogue number 06-182 1/1000 in 3% bovine serum albumin in TBST) were added and it was incubated overnight at 4° C.
After 4 washings with TBST, 0.45 μg/ml of the secondary alkaline-phospatase-coupled anti-rabbit antibody (DAKO, 1/800 in 3% bovine serum albumin in TBST) were added and it was kept for 1 h at 37° C.
4 washings with TBST were performed and it was developed using 4-methylumbelliferyl phosphate as the substrate (1 mg/ml in 0.2 M triethanolamine at pH 8.5) for 30 min at room temperature in the dark.
The results were quantified by means of fluorescence reading using the Cytofluor 235 fluorometer with an excitation filter of 360/40 and an emission filter of 460/40.
All the treatments were performed in sextuplicate in each experiment: 3 points for phosphorylated Erk 1/2 and 3 points for total Erk 1/2. At least 4 independent experiments were performed.
The following were used as controls: • 1) cells without treatment (negative control), • 2) cells treated with tPA and without an inhibitor (positive control), and • 3) cells incubated only with the secondary antibody and the substrate (negative control in the ELISA technique). […]

[1] = 15 minutes pre-incubation with inhibitor (compound of formula (I) 30 μM), then Aβ1-40 20 μM for 72 h, DNAse positive control = 100, negative control 0.4

Molecule | apoptosis of nerve cells, Mean value (%) of dead neurons (Hippocampal neurons; [1]) [%] | inhibition of the apoptosis induced by the β-amyloid peptide (in words) (Hippocampal neurons; TUNEL, neurons cultured in vitro) | inhibition of the activation of the protein kinase Erk 1/2 induced by tPA (in words) (protein kinase Erk 1/2; ELISA, hippocampal neurons) | normalised Erk 1/2 values, Mean value (arbitrary units) (protein kinase Erk 1/2) | apoptosis of nerve cells, Mean value (%) of dead neurons (Hippocampal neurons; Aβ1-40 20 μM alone for 72 h, no inhibitor, DNAse positive control = 100) [%]
NCC12CCC3CC(CC3C1)C2 (centres unmarked) [Compound of formula (I)] | 2.8 | efficiently inhibited | effectively inhibits | 0.61 | 
C[C@]12N[C@H](Cc3ccccc31)c1ccccc12 [Dizocilpine (MK-801), dizocilpine] |  |  |  | 0.73 | 
CC12CC3CC(C)(C1)CC(N)(C3)C2 [Memantine, memantine] | 4 |  |  | 0.75 | 
Amyloid βProtein (1-40) trifluoroacetate salt [β-amyloid peptide (Aβ1-40)] |  |  |  |  | 83.8
